The text below walks through data of patent publication US11247984B2, “Uracil containing compounds” (CV6 Therapeutics (NI) Limited, priority 2017, dated 2022).

In experiment [1] the test system is colorectal (HCT116 and SW620) cell line models. The experiment is described as follows: MTS growth inhibition assay. In kind it is cell-based. The following applies: 5-FU between 0 and 100 μmol/L. As for the experimental part:
The Cell Titer AQueous MTS assay (Promega) is carried out according to the manufacturers guidelines. […] The combination effect is determined by the combination index (CI) method utilizing Calcusyn software (Biosoft, Ferguson, Mo.). Fraction affected (FA) is calculated from the percent growth inhibition: FA=[…]. CI values <1, synergism; 1-1.2, additive and >1.2, antagonism.
Test compounds are evaluated for their antitumor activity in colorectal cancer cells using the MTS growth inhibition assay. HCT116 and SW620 cells are exposed to increasing concentrations of each agent for 72 hours and growth inhibition is directly compared to vehicle-treated controls. The NSCLC cell lines A549 and H1299 are exposed to increasing concentrations of each agent for 72 hours and growth inhibition is directly compared to vehicle-treated controls.
MTS growth inhibition assays are performed to evaluate the effectiveness of the test compounds alone and in combination with the fluoropyrimidine thymidylate synthase (TS) inhibitor 5-fluorouracil (5-FU) at inhibiting the growth of colorectal (HCT116 and SW620) cell line models. […] Simultaneous treatment with increasing concentrations of 5-FU and a test compound at fixed concentrations of 25 μmol/L is determined.

In experiment [2] the target is T1, recombinant human deoxyuridine nucleotidohydrolase (dUTPase) (Homo sapiens, UniProt P33316).
T1 construct: made in house
T1 sequence (P33316 1-164 isoform P33316-2): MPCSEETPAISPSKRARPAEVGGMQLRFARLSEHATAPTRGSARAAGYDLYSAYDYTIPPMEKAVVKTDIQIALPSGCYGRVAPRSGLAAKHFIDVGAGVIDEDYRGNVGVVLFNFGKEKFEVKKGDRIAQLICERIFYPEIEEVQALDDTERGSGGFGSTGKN
Kind of experiment: fluorescence-based dUTPase inhibition assay. In kind it is biochemical. The following applies: for % relative inhibition vs. positive control: mean across three concentrations, typically 100, 50 and 25 μmol/L, compared to in-run positive control. The source says: Recombinant human deoxyuridine nucleotidohydrolase (dUTPase) is expressed and purified as described in Ladner R D, Carr S A, Huddleston M J, McNulty D E, Caradonna S J. J Biol Chem. 1996 Mar. 29; 271(13):7752-7. All drugs stocks are aliquoted and diluted as appropriate prior to use. The oligonucelotide primer, templates and fluorophore- and quencher-labeled detection probes are synthesized by Integrated DNA Technologies (Coralville, Iowa), subjected to polyacrylamide gel electrophoresis purification and reconstituted in Omnipur sterile nuclease-free water (EMD Chemicals USA, Gibbstown N.J.) at a stock concentration of 100 μmol/L. The two non-emissive (dark) quenching molecules incorporated into the detection probes include the Iowa black fluorescein quencher (IBFQ; absorption max 531 nm) and ZEN (non-abbreviation; absorption max 532 nm). The fluorescent label utilized is 6-FAM (5′-carboxyfluorescein; excitation max.=494 nm, emission max.=520 nm). Probes are further diluted to a working stock of 10 μmol/L and aliquoted to avoid repeated freeze/thaw cycles. AmpliTaq Gold DNA Polymerase, GeneAmp 10×PCR Buffer 2, MgCl2 and MicroAmp Optical 96-well Reaction Plates are purchased from Applied Biosystems (Carlsbad, Calif.). dNTPs are purchased individually at stock concentrations of 100 mmol/L from New England Biolabs at HPLC-certified >99% purity (Ipswich, Mass.).
Reaction mixtures contained primer, probe and template at an equimolar final concentration of 0.4 μmol/L. Magnesium chloride (MgCl2) is included at a final concentration of 2 mmol/L. Non-limiting dNTPs are included in the reaction mix in excess at a final concentration of 100 μmol/L (dUTP/dTTP is excluded). AmpliTaq Gold DNA polymerase is added at 0.875 U/reaction, 2.5 μl of 10×PCR buffer 2 added and nuclease-free ddH2O added to a final reaction volume of 25 μl. For dUTP inhibition analysis, the volume of ddH2O is further modified to accommodate an additional 1 μl of dUTPase (10 ng/μt) and 1 μl of inhibitor or DMSO control. Thermal profiling and fluorescence detection is performed using a customized thermal program on board a Roche Lightcycler LC480 Instrument II. For analysis of dNTPs, the thermal profile consisted of an 8 min 37° C. step followed by a 10 min 95° C. step to ‘hot-start’ the Taq polymerase and a primer extension time of up to 30 min at 60° C. Raw fluorescence spectra for 6-FAM is measured at specified time intervals to follow assay progression on board a Roche LightCycler 480 Software Version 1.5 and exported and analyzed in Microsoft Excel (Microsoft, Redmond Wash.) and Prism (GraphPad Software, La Jolla Calif.). Fluorescence values for blank reactions (limiting dNTP omitted) are subtracted to give normalized fluorescence units (NFU) to account for background fluorescence.
Test compounds are screened in a fluorescence-based assay. The assay employs a DNA polymerase-based approach utilizing an oligonucleotide template with 3 distinct regions: a 3′ primer binding region, a mid-template dUTP/thymidine triphosphate (TTP) detection region and a 5′ 6-[…] (FAM)-labeled probe binding region that incorporates a black hole quenching moiety. During the reaction, the probe and primer hybridize to the oligonucleotide template to form the template:primer:probe complex. When Taq polymerase binds to the primer in the TPP complex and dUTP is present, successful extension of the nascent strand occurs and the inherent 5′ to 3′ exonuclease activity of Taq polymerase cleaves and displaces the 6-FAM-labeled probe in a 5′ to 3′ direction, releasing the 6-FAM fluorophore from its proximity to the […]. This displacement effectively disrupts the Forster resonance energy transfer (FRET) and the resulting fluorescence detected upon excitation is directly proportional to the amount of the dUTP available in the assay for incorporation. […]

For experiment [3], the system named is colorectal (HCT116), breast (MCF-7) and non-small cell lung (H1299, A549, H358 and H460) cell line models. Kind of experiment: colony forming assay. Type of experiment: cell-based. The settings on record: FUdR between 0.5 and 2.5 μmol/L; all cell lines evaluated. As for the experimental part: Colony forming assay showing the ability of colon (SW620, HCT116), non-small cell lung (A549, H460, H1299 and H358) and breast (MCF7) cancer cells to survive and proliferate following transient 24 hour exposure to test compounds, FUdR and combinations are determined. Specifically, cells are seeded at densities between 50 and 100 cells/well in 24-well plates. Twenty-four hours later, cells are treated with increasing concentrations of a rtest compound, a fixed dose of FUdR and combinations of these. After 24 hours, drug is removed, cells are rinsed and allowed to outgrow for 10-14 days. At the conclusion of the outgrowth, cells are fixed in 60% ice cold methanol and stained with 0.1% crystal violet, scanned and counted. Data is presented as percentage of untreated controls (mean±SD). Fraction affected and combination indexes are calculated according to the method of Chou and Talalay where <1 is indicative of a synergistic drug interaction.
Colony forming assays are performed to evaluate the effectiveness of test compounds alone and in combination with the fluoropyrimidine thymidylate synthase (TS) inhibitor fluorodeoxyuridine (FUdR) at reducing cancer cell viability in colorectal (HCT116), breast (MCF-7) and non-small cell lung (H1299, A549, H358 and H460) cell line models. […]

Each structure is given as a SMILES string. pIC50: −log10 of the molar value.

Regarding `O=c1[nH]cc(F)c(=O)[nH]1` [Example 5-FU, 5-fluorouracil], in experiment [1], the growth inhibition result is “dose-dependent increases in growth inhibition”. As to `CC(C)[C@@H](NS(=O)(=O)CC/C=C/CN1CCC(=O)NC1=O)c1ccc(F)c(OCC2CC2)c1` [Example 79, (R,E)-N-(1-(3-(cyclopropylmethoxy)-4-fluorophenyl)-2-methylpropyl)-5-(2,4-dioxotetrahydropyrimidin-1(2H)-yl)pent-3-ene-1-sulfonamide], the “% relative inhibition vs. positive control” value in experiment [2] stood at 145%. `CC(C)[C@@H](NS(=O)(=O)CCCCCN1CCC(=O)NC1=O)c1ccc(F)c(OCC2CC2)c1` [Example 80, (R)—N-(1-(3-(cyclopropylmethoxy)-4-fluorophenyl)-2-methylpropyl)-5-(2,4-dioxotetrahydropyrimidin-1(2H)-yl)pentane-1-sulfonamide]: in experiment [2], the “% relative inhibition vs. positive control” value stood at 103%. In the case of `CC(C)COc1cc(C(C)(C)NS(=O)(=O)CC/C=C/CN2CCC(=O)NC2=O)ccc1F` [Example 81, (E)-5-(2,4-dioxotetrahydropyrimidin-1(2H)-yl)-N-(2-(4-fluoro-3-isobutoxyphenyl)propan-2-yl)pent-3-ene-1-sulfonamide], the “% relative inhibition vs. positive control” value in experiment [2] worked out at 80%. The same measure, in the same setting: the value for `C[C@@H](NS(=O)(=O)CCCOCN1CCC(=O)NC1=O)c1cccc(OCC2CC2)c1` [Example 82, (R)—N-(1-(3-(cyclopropylmethoxy)phenyl)ethyl)-3-((2,4-dioxotetrahydropyrimidin-1(2H)-yl)methoxy)propane-1-sulfonamide] was 174%; that for `CC[C@@H](NS(=O)(=O)CCCOCN1CCC(=O)NC1=O)c1ccc(F)c(OCC2CC2)c1` [Example 83, (R)—N-(1-(3-(cyclopropylmethoxy)-4-fluorophenyl)propyl)-3-((2,4-dioxotetrahydropyrimidin-1(2H)-yl)methoxy)propane-1-sulfonamide] was 166%. As for `C[C@@H](NS(=O)(=O)CCCCCn1ccc(=O)[nH]c1=O)c1ccc(F)c(OCC2CC2)c1` [Example 84, (R)—N-(1-(3-(cyclopropylmethoxy)-4-fluorophenyl)ethyl)-5-(2,4-dioxo-3,4-dihydropyrimidin-1(2H)-yl)pentane-1-sulfonamide], in experiment [2], the “% relative inhibition vs. positive control” value is on record as 214%. In addition, in experiment [2] (recombinant dUTPase, 8 min at 37° C.), the pIC50 was 6.52. As to `C[C@H](NS(=O)(=O)CCCCCn1ccc(=O)[nH]c1=O)c1ccc(F)c(OCC2CC2)c1` [Example 86, (S)—N-(1-(3-(cyclopropylmethoxy)-4-fluorophenyl)ethyl)-5-(2,4-dioxo-3,4-dihydropyrimidin-1(2H)-yl)pentane-1-sulfonamide], the “% relative inhibition vs. positive control” value in experiment [2] is reported as 54%. As for `O=c1[nH]c(=O)n([C@H]2C[C@H](O)[C@@H](CO)O2)cc1F` [FUdR, fluorodeoxyuridine], in experiment [3], the colonies formed entry is recorded as “dose-dependent decreases in colonies formed”.

As usually defined, the pIC50 is the IC50 on a negative log10 scale, so that one unit is a factor of ten.
